How the values were obtained:
Lewis rats = assay: In situ muscle contractile characteristics: isometric hindlimb force in rats under Cisatracurium infusion; assay type: in vivo, rat; conditions: 20 mg/kg i.v.
Description: Isometric hindlimb force was measured in 12-week old female Lewis rats in the presence and absence of compound.
Rats were placed under anesthesia with isoflurane (2-4%), intubated and subsequently connected to a micro ventilator (Microvent 1, Hallowell EMC, US). Two stimulation electrodes were inserted through the skin to stimulate the sciatic nerve. A small incision was made proximal to the ankle, to expose the Achilles tendon, which was tied by cotton string, and connected to a force transducer (Fort250, World Precision Instruments) with adjustable position (Vernier control). The Achilles tendon was then cut distal to the attached cotton string. […]
Muscle contractile properties were assessed by applying an electrical current (under supramaximal voltage conditions) to the nerve and recording the force generated by the muscle. The muscle was stretched until maximal force was obtained, when assessed by 2 Hz stimulation. Isometric force was measured every 30 seconds at 12 Hz (Twitch), 10 pulses, and at every 5 minutes at 80 Hz (Tetanic) for 1 second (80 pulses). […] The effect of test article was assessed on its ability to increase force generated from the stimulation pattern applied. The effect was assessed in the ability to increase force per se (tetanic, 80 Hz, stimulation), and the ratio between individual twitch peaks (12 Hz stimulation). […]

[1] = system: isolated rat soleus muscles; assay: Recovery of nerve-stimulated force in isolated rat soleus muscles exposed to sub-maximal tubocurarine; assay type: cell-based; conditions: change in AUC vs AUC after 40 min in tubocurarine before addition
Description: Experiments were performed using rat soleus muscles from either young (4-wk-old) or adult Wistar rats (12-14-week-old). Animal handling, killing and isolation of muscle is described elsewhere All experiments were performed using normal Krebs-Ringer bicarbonate solution (NKR). In solutions with elevated Mg^2+, MgCl2 was added to NKR-solution causing minor increases in osmolarity and ionic strength. In solutions with elevated K^+, 4 mM NaCl was replaced by 4 mM KCl in the NKR.
In all contraction experiments, isometric force production was determined and force produced during contractions was quantified by measuring the integral of the force response (AUC). Stimulation and force recordings have been described elsewhere. […] In these latter experiments, extracellular recordings of action potentials (M-waves) could be measured without temporal overlap with stimulation artefacts.
The aim was to find compounds that by inhibition of CIC-1 channels can recover nerve-stimulated force under conditions of fatigue including conditions where fatigue is caused by compromised neuromuscular transmission. Neuromuscular transmission dysfunction can develop because of both pre- and/or post-synaptic complications in connection with a disorder or as part of neuromuscular blockade during/after surgery. In the initial series of drug testing, experiments were performed with isolated muscles in the presence of sub-maximal ACh receptor antagonist tubocurarine. Since the inclusion of tubocurarine caused a partial loss of neuromuscular transmission this experiment mimics the conditions in myasthenia gravis and neuromuscular blockade. To mimic conditions with pre-synaptic complication (Lambert Eaton syndrome, motor neuron disorder, polyneuropathy) the intact nerve-muscle preparations were incubated at elevated extracellular Mg^2+, which is known to suppress release of ACh from nerve terminals of motor neurons.
The experiments also illustrate that field stimulation of the entire nerve-muscle preparation selectively activates the motor nerve when short-duration pulses (0.02 vs 0.2 ms) were used. In FIG. 1A the preparation was stimulated either via field stimulation or via nerve-stimulation using a suction electrode. With the suction electrode only the nerve could be stimulated. When exposed to a submaximal concentration of the ACh receptor antagonist tubocurarine (0.2 μM) a clear drop in peak force and a further decline (or fade) in force during the stimulation developed. This drop in force clearly reflected compromised neuromuscular transmission, as the decline in peak force and fading were not seen with direct stimulation of the muscle. […] Thus, loss of M-wave and force with tubocurarine reflected partial blockade of neuromuscular function. Such fading of force and M-waves during stimulation represent clinical hallmarks of both myasthenia gravis and neuromuscular blockade in connection with surgery. In FIG. 1B, observations with normal (0.2 ms) and short-duration (0.02 ms) pulses have been compared. It can be seen that only with short-duration pulses did tubocurarine cause a decline in peak force and fading (FIG. 1B). This confirms that short-duration pulses in field stimulation could be used as specific nerve-stimulation. […] Elevated extracellular Mg^2+ could thus be used to partially block neuromuscular transmission and thus be used as a model of conditions with compromised pre-synaptic function (Lambert Eaton syndrome, amyotrophic lateral sclerosis, spinal muscular atrophy). […]

[2] = Pharmacokinetic analysis of C8 in rats, single I.P. dose; assay type: in vivo, rat; conditions: one-bolus I.P. injection
Description: This part of the study was performed by Pipeline Biotech A/S (Spørring, Denmark). […] Plasma concentrations (free and bound) were determined by OnTarget Chemistry (Uppsala, Sweden, Project No.: PB243-001).
Before conducting in vivo experiments with animal models of myasthenia gravis, some pharmacokinetic details were obtained for C8 in response to one-bolus I.P. injection.

Molecule | average increase in twitch peaks (Lewis rats; 12 Hz stimulation) [%] | average increase in tetanic force (Lewis rats; 80 Hz stimulation) [%] | 50 μM % change after addition (AUC of nerve-stimulated force) ([1]; 50 μM compound, AUC related to force prior to tubocurarine) [%] | 150 μM % change after addition (AUC of nerve-stimulated force) ([1]; 150 μM compound) [%] | Cl_obs [2] [mL/h] | VD_obs [2] [mL]
(2S)-2-(4-bromophenoxy)(2-^2H)butanoic acid [Compound A-60] | 18.5 | 52.7 | – | – | – | –
C[C@H](Oc1ccc(Br)cc1)C(=O)O [Compound C8, (2S)-2-(4-bromophenoxy)propanoic acid] | – | – | 16 | 23 | 48.69 | 259.62
